# According to patent US20120251619A1, “MicroRNA-29a,b,c as a Tumor Suppressor and Sensitizing Agent for Chemotherapy” (priority 2011, published 2012):
# Entries after “also recorded” stand apart in the source; their conditions may differ.
# Experiments:
# Assay type in all cases: cell-based, human
# [1] = system: HEYA8 cells (p53-wild type ovarian cancer); experiment: MTS proliferation assay after transient transfection of miR-29a mimic; conditions: HEYA8, miR-29a mimic transiently transfected, vs parental strain and scrambled control, 48 h and 72 h
# Description: (§1) For the in vitro evaluation of miR-29a on cell proliferation of ovarian cancer cells, microRNA mimics of miR-29a were transiently transfected into the p53-deficient ovarian cancer cell line OVCAR8 and the p53-wild type HEYA8 and the impact of this microRNA on cell proliferation was measured by increase in absorbance from the […].
# (§2) The time course MTS assay experiments were run three times (separate days), each with a different set of biological quadruplicates (n=12 per group); within each experiment run, the viability measures within each time point were centered on the mean of the WT group for the first run. For cisplatin treatment, cells were transfected as described, and media was replaced after 24 hrs with media containing cisplatin (Sigma) (0-7.5 μg/mL). Viability was assayed 72 hrs post-transfection. Experiments were run three times, each with a different biological replicate (n=3 per group). For each run, viability measures within each concentration point were centered on the mean of values for the first run.
# [2] = system: OVCAR-8 cells (p53-deficient ovarian cancer); experiment: as above; conditions: OVCAR8, miR-29a mimic transiently transfected, vs parental strain and scrambled control, 48 h and 72 h
# Description: as §1, §2
# HEYA8 cells = experiment: Proliferation/viability under cisplatin treatment after miR-29a transfection; conditions: HEYA8, miR-29a 72 h, cisplatin 0-7.5 μg/mL for 48 h, vs scrambled control at same cisplatin dosage
# Description: (§3) FIGS. 6A-6B: Effect of miR-29a (72 h) on proliferation, under a range of concentrations of cisplatin treatment (at 48 h) of HEYA8 (FIG. 6A) and OVCAR-8 cells (FIG. 6B). Error bars are standard error. Proliferation curves of the parental HEYA8 strain treated with a scrambled control sequence and with microRNA mimics for miR-29a are shown.
# as §2
# OVCAR-8 cells = experiment: as above; conditions: OVCAR-8, miR-29a 72 h, cisplatin 0-7.5 μg/mL for 48 h
# Description: as §3, §2
# CBX1 = experiment: QPCR of gene target after miR-29a overexpression in HEYA8 cells; conditions: HEYA8, forced miR-29a expression vs scrambled control and untreated
# Description: (§4) FIG. 4: QPCR analysis showing relative quantity of selected miR-29a anti-correlated gene targets after miR29a overexpression in HEYA8 ovarian cancer cells (SCR, scrambled control; WT, untreated; two-sided t-test P<0.05, mir-29a vs SCR and miR-29a vs WT, each comparison, except for SAE1).
# (§5) Total RNA (60 ng) was reverse transcribed in a 40 μl reaction using the TaqMan® MicroRNA Reverse Transcription Kit (ABI). QPCR was performed on a StepOne Real-Time PCR System (ABI) using Power-SYBR Green PCR Master Mix (ABI) in a 20 μl reaction and human ribosomal RNA 18s as an endogenous control (which was itself not miR-29a-regulated, data not shown). The QPCR experiments were run four times (separate days), each with independent biological samples (n=4 per group); within each experiment run, relative expression values were normalized to standard deviations from the mean.
# CDC6 = experiment: as above; conditions: HEYA8, forced miR-29a expression vs scrambled control and untreated
# Description: as §4, §5
# DNMT3A = experiment: as above; conditions: HEYA8, forced miR-29a expression vs scrambled control and untreated
# Description: as §4, §5
# DNMT3B = experiment: as above; conditions: HEYA8, forced miR-29a expression vs scrambled control and untreated
# Description: as §4, §5
# MYBL2 = experiment: as above; conditions: HEYA8, forced miR-29a expression vs scrambled control and untreated
# Description: as §4, §5
# SAE1 = experiment: as above; conditions: HEYA8, forced miR-29a expression vs scrambled control and untreated
# Description: as §4, §5
# TIMELESS = experiment: as above; conditions: HEYA8, forced miR-29a expression vs scrambled control and untreated
# Description: as §4, §5
substance,measurement,setting,value
"miR-29a: microRNA mimic of miR-29a (5′-TAGCACCATCTGAAATCGGTTA-3′, SEQ ID NO: 13), transiently transfected into ovarian cancer cells (listed as DNA, chemistry not given here)",effect on cell proliferation,[1],very significantly suppress cell proliferation
same,effect on cell proliferation,[2],moderately suppress cell proliferation
same,effect on proliferation under cisplatin treatment,HEYA8 cells,suppress the proliferation of HEYA8 significantly more effectively than the scrambled control; also recorded: suppresses the proliferation of HEYA8 significantly more effectively than the scrambled control
same,effect on proliferation under cisplatin treatment,OVCAR-8 cells,had an additional effect on chemotherapeutic agent cisplatin in inhibiting the growth
same,relative quantity of CBX1 transcript (QPCR),CBX1,repressed
same,relative quantity of CDC6 transcript (QPCR),CDC6,repressed
same,relative quantity of DNMT3A transcript (QPCR),DNMT3A,repressed
same,relative quantity of DNMT3B transcript (QPCR),DNMT3B,repressed
same,relative quantity of MYBL2 transcript (QPCR),MYBL2,repressed
same,relative quantity of SAE1 transcript (QPCR),SAE1,no functional repression
same,relative quantity of TIMELESS transcript (QPCR),TIMELESS,repressed
